Earlier results, collected in patent US20210338702A1, “A teniposide injection with high dilution stability and preparation method thereof” (JIANGSU LINGHANG BIOLOGICAL TECHNOLOGY CO., LTD., priority 2018, published 2021).

Legend:
[1] = compared with the same type of drug etoposide

- Solubility in water: almost insoluble in water
SMILES: COc1cc([C@@H]2c3cc4c(cc3[C@@H](O[C@@H]3O[C@@H]5CO[C@@H](c6cccs6)O[C@H]5[C@H](O)[C@H]3O)[C@H]3COC(=O)[C@H]23)OCO4)cc(OC)c1O [Teniposide]
- Biological activity relative to etoposide [1]: 5-10 times
